Results as given in EP0528699B1, “Saishin N derivatives, process for their preparation and anti-ulcer agents containing them” (TOKYO TANABE COMPANY LIMITED, priority 1991, dated 1993).
Structures can show the parent of a compound that is named as a salt. Where two headings read alike, the source gives them in different places. Marks after values point to notes of the source that are not given here.

Columns and labels:
[1] = tested on: Shay's Ulcers; assay: Shay's Ulcers; type: in vivo, male Wister rats; conditions: Rattus norvegicus, intraduodenal, 14 h, read-out: Shay, inhibiting ratio; for inhibition in vivo at 50 mg/kg: dose 50 mg/kg intraduodenally immediately after the ligation; for inhibition in vivo at 300 mg/kg: dose 300 mg/kg intraduodenally immediately after the ligation
Protocol: (§1) Experiments on Hydrochloric acid-Ethanol-Induced Ulcers, Aspirin-Induced Ulcers, Water-Immersion stress-Induced Ulcers, Shay's Ulcers and Serotonin-Induced Ulcers were carried out using male Wister rats weighing about 200g in groups of six. Experiments on Ischemia-Reperfusion -Induced Gastric Lesions were carried out using male SD rats weighing about 250g in groups of six. Other than for the tests on Ischemia-Reperfusion-Induced Gastric Lesions Models, the test compounds were prepared by mixing thoroughly with polyethyleneglycol and 0.5% sodium carboxymethyl cellulose solution and emulsifying vigorously. Activities against respective ulcer models were evaluated by an inhibiting ratio obtained by dividing the difference between the ulceration indexes of the non-administered group and the test compound group by the non-administered group.
In each rat which had been fasted for 48 hours, the pyloric end of stomach was ligated, and each was kept without giving any food or water for 14 hours. Each rat was then slaughtered, and area of ulcer formed in the forestomach was measured and ulceration inded was calculated based on the area. The test compound was administered intraduodenally immediately after the ligation.
(§2) The results of Aspirin-Induced Ulcers, Water-immersion stress-Induced Ulcers, Shay's Ulcers, Serotonin-induced Ulcers and Ischemia-Reperfusion-Induced Gastric lesions are shown in Table 3.

[2] = tested on: Serotonin-Induced Ulcers; assay: Serotonin-Induced Ulcers; type: in vivo, male Wister rats; conditions: Rattus norvegicus, 4.5 h, read-out: Serotonin, inhibiting ratio; for inhibition in vivo at 20 mg/kg: dose 20 mg/kg intraduodenally 30 minutes before Serotonin creatinine sulfate 30 mg/kg subcutaneously; for inhibition in vivo at 50 mg/kg: dose 50 mg/kg intraduodenally 30 minutes before Serotonin creatinine sulfate 30 mg/kg subcutaneously
Protocol: as §1
To each rat which had been fasted for 24 hours, 30 mg/kg of a solution of serotonin creatinine sulfate in a saline solution was administered subcutaneously. Each rat was then slaughtered after 4 and a half hours and area of gastric mucosal lesion formed facing the center line of greater curvature of the corpus ventriculi of stomach was measured and ulceration index was calculated based on the area. The test compound was administered intraduodenally 30 minutes before the administration of the Serotonin creatinine sulfate.
as §2

[3] = tested on: Ischemia-Reperfusion-Induced Gastric Lesions; assay: Ischemia-Reperfusion-Induced Gastric Lesions; type: in vivo, male SD rats; conditions: dose 40 mg/kg in dimethylsulfoxide from the caudal artery 30 minutes before beginning collection of the blood
Protocol: as §1
Each rat which had been fasted for 24 hours was anesthetized intraperitoneally with Nembutal and immobilized on a constant temperature pad in a dorsal position. After tracheotomy was performed, blood pressure was measured via a transducer for blood pressure from a cannula inserted in right carotid. The abdomen was opened, and the gastroesophageal junction was ligated. A tube was then passed through the duodenostomy into the stomach and the gastric lumen was lavaged with warm saline. 1 ml of 0.1N hydrochloric acid per 100g body weight was instilled into the stomach via the gastric tube and the pylorus was ligated. When the blood pressure became stable, 2% of weight (w/w) of the blood was collected from a cannula inserted in the left carotid into a syringe containing a heparin added saline solution. After 20 minutes, the collecting blood was retransfused and each rat was left to stand for 20 minutes, and slaughtered and the area of gastric mucosal lesions was measured and ulceration index was calculated based on the area. The test compound was dissolved in dimethylsulfoxide and administered at a dose of 40 mg/kg from the caudal artery 30 minutes before beginning collection of the blood.
as §2

[4] = tested on: Hydrochloric acid-Ethanol-Induced Ulcers; assay: Hydrochloric acid-Ethanol-Induced Ulcers; type: in vivo, male Wister rats; conditions: Rattus norvegicus, intraduodenal, read-out: Inhibition ratio(%); for inhibition in vivo at 10 mg/kg: dose 10 mg/kg intraduodenally one hour before hydrochloric acid - 60% ethanol
Protocol: as §1
To each rat which had been fasted for 24 hours was orally administered 0.5ml of a mixed solution of 150 mM hydrochloric acid - 60% ethanol per 100g of weight. Each rat was slaughtered after one hour, a length of ulcer formed at the fundus gland area of stomach was measured and ulceration index was calculated based on the length. The test compound was administered intraduodenally one hour or three hours before the administration of mixed solution of hydrochloric acid - 60% ethanol.

[5] = tested on: Water-Immersion stress-Induced Ulcers; assay: Water-Immersion stress-Induced Ulcers; type: in vivo, male Wister rats; conditions: Rattus norvegicus, po, 10 h, read-out: Water-Immersion Stress, inhibiting ratio; for inhibition in vivo at 20 mg/kg: dose 20 mg/kg orally 10 minutes before the exposure to stress; for inhibition in vivo at 50 mg/kg: dose 50 mg/kg orally 10 minutes before the exposure to stress
Protocol: as §1
Each rat which had been fasted for 15 hours was immobilized in a stress cage and immersed to chest depth in a water bath at 21°C. Each rat was slaughtered after 10 hours, a length of ulcer formed at the fundus gland area of stomach was measured and ulceration index was calculated based on the length. The test compound was administered orally 10 minutes before the exposure to stress.
as §2

[6] = tested on: Aspirin-Induced Ulcers; assay: Aspirin-Induced Ulcers; type: in vivo, male Wister rats; conditions: Rattus norvegicus, 9 h, 5 minutes before 150 mg/kg of aspirin orally, read-out: Aspirin, inhibiting ratio; for inhibition in vivo at 50 mg/kg: dose 50 mg/kg intraduodenally at pylorus ligation
Protocol: as §1
In each rat which had been fasted for 24 hours, the pyloric end of the stomach was ligated, and simultaneously the test compound was administered intraduodenally, and after 5 minutes, 150 mg/kg of aspirin was administered orally, respectively. After 9 hours from ligation, each rat was slaughtered, a length of ulcer formed at the fundus gland area of stomach was measured and ulceration index was calculated based on the length.
as §2

[7] = 3 h, Table 1, dose 20 mg/kg intraduodenally three hours before hydrochloric acid - 60% ethanol

| SMILES | inhibition in vivo at 50 mg/kg [1] | inhibition in vivo at 20 mg/kg [2] | Ischemia-Reperfusion, inhibiting ratio [3] | inhibition in vivo at 20 mg/kg [4, 7] | inhibition in vivo at 20 mg/kg [5] | inhibition in vivo at 50 mg/kg [5] | inhibition in vivo at 50 mg/kg [6] | other results |
| --- | --- | --- | --- | --- | --- | --- | --- | --- |
| COC12CC(C)(C)C(O1)C(O)CC2C (stereo not drawn) [AU105B, 2,4-cis-1-methoxy-2,6.6-trimethyl-8-oxabicyclo [3.2.1] octan-4-ol] | 44% | 80% | 52(40)* | 63% | 65% | – | – | inhibition in vivo at 10 mg/kg ([4]; 1 h, Table 2): 86% |
| COC1C=C(C)C(=O)CC(C)(C)C1O (centres unmarked) [AU154, 5-hydroxy-4-methoxy-2,6,6-trimethyl-2-cyclohepten-1-one] | 22% | 46% | – | 21% | – | 17% | – | inhibition in vivo at 10 mg/kg ([4]; 1 h, Table 2): 67% |
| CC1=CC(OC(=O)c2ccccc2)C(O)C(C)(C)CC1=O (centres unmarked) [AU190, 4-benzoyloxy-5-hydroxy-2,6,6-trimethyl-2-cyclohepten-1-one] | 55% | 69% | – | 66% | – | 45% | 55% | – |
| CC1=CC(O)C(OC(=O)C=Cc2ccccc2)C(C)(C)CC1=O (centres unmarked) [AU205, 5-cinnamoyloxy-4-hydroxy-2,6,6-trimethyl-2-cyclohepten-1-one] | 50% | 80% | – | 83% | 42% | – | 53% | – |
| CC1=CC(OC(=O)c2ccc([N+](=O)[O-])cc2)C(O)C(C)(C)CC1=O (centres unmarked) [AU212, 5-hydroxy-4-(4-nitrobenzoyloxy)-2,6,6-trimethyl-2-cyclohepten-1-one] | 75% | 71% | 63(40)** | 90% | 48% | – | – | inhibition in vivo at 20 mg/kg ([6]; dose 20 mg/kg intraduodenally at pylorus ligation): 46% |
| CC1=CC(OC(=O)c2ccc(N)cc2)C(O)C(C)(C)CC1=O (centres unmarked) [AU215, 4-(4-aminobenzoyloxy)-5-hydroxy-2,6,6-trimethyl-2-cyclohepten-1-one] | 73% | 81% | 90(40)** | 56% | 45% | – | 66% | – |
| COC1C(O)C=C(C)C(=O)CC1(C)C (centres unmarked) [AU222, 4-hydroxy-5-methoxy-2,6,6-trimethyl-2-cyclohepten-1-one] | 58% | 84% | – | 54% | 34% | – | 28% | – |
| COC12CC(C)(C)C(O1)C(OC(=O)c1ccc(N)cc1)C=C2C (centres unmarked) [AU245, 4-(4-aminobenzoyloxy)-1-methoxy-2,6,6-trimethyl-8-oxabicyclo [3.2.1] oct-2-ene] | 35% | 38% | 93(40)** | 58% | 38% | – | 63% | – |
| COC1C=C(C)C(=O)CC(C)(C)C1OC(=O)c1ccc([N+](=O)[O-])cc1[N+](=O)[O-] (centres unmarked) [AU407, 5-(2,4-dinitrobenzoyloxy)-4-methoxy-2,6,6-trimethyl-2-cyclohepten-1-one] | – | 41% | – | 82% | – | 50% | 71% | – |
| COC1C=C(C)C(=O)CC(C)(C)C1OC(=O)c1ccc(N)cc1N (centres unmarked) [AU408, 5-(2,4-diaminobenzoyloxy)-4-methoxy-2,6,6-trimethyl-2-cyclohepten-1-one] | 43% | 44% | 75(40)** | 58% | – | 56% | 73% | – |
| CC1=CC(OC(=O)c2cccn2C)C(O)C(C)(C)CC1=O (centres unmarked) [AU501, 4-(1-methyl-2-pyrrolylcarbonyloxy)-5-hydroxy-2,6,6-trimethyl-2-cyclohepten-1-one] | – | – | 77(40)** | 56% | – | 22% | 30% | inhibition in vivo at 50 mg/kg [2]: 55% |
| NC[C@H]1CC[C@H](C(=O)Oc2ccc(CCC(=O)O)cc2)CC1 [Cetraxatehydrochloride, reference compound] | – | – | – | – | – | – | – | inhibition in vivo at 300 mg/kg [1]: 11%; inhibition in vivo at 300 mg/kg ([6]; dose 300 mg/kg intraduodenally at pylorus ligation): 33%; inhibition in vivo at 300 mg/kg ([5]; dose 300 mg/kg orally 10 minutes before the exposure to stress): 45% |
| CC1=CC(O)C(O)C(C)(C)CC1=O (centres unmarked) [Saishin N, 4,5-dihydroxy-2,6,6-trimethyl-2-cycloheptene-1-one] | – | 13% | – | 15% | – | 49% | 52% | inhibition in vivo at 100 mg/kg ([1]; dose 100 mg/kg intraduodenally immediately after the ligation): 49%; inhibition in vivo at 300 mg/kg [1]: 58%; inhibition in vivo at 50 mg/kg [2]: 36%; inhibition in vivo at 100 mg/kg ([6]; dose 100 mg/kg intraduodenally at pylorus ligation): 60%; inhibition in vivo at 10 mg/kg ([4]; 1 h, Table 2): 35%; inhibition in vivo at 20 mg/kg ([4]; 1 h, Table 2, dose 20 mg/kg intraduodenally one hour before hydrochloric acid - 60% ethanol): 88%; inhibition in vivo at 50 mg/kg ([4]; 3 h, Table 1, dose 50mg/kg intraduodenally three hours before hydrochloric acid - 60% ethanol): 83%; inhibition in vivo at 100 mg/kg ([5]; dose 100 mg/kg orally 10 minutes before the exposure to stress): 62% |
